Measurements reported in the Deep4Chem optical property database.
One block for each compound: values may come before it.

Experiment: solvent given as SMILES

Compound: COc1ccc(C(=O)/C=C/c2ccc(N(C)C)cc2)cc1OC
emission maximum (in C1CCOC1): 500 nm | emission maximum (in CC#N): 525 nm | emission maximum (in CC(=O)O): 513 nm | emission maximum (in CC(C)=O): 511 nm | emission maximum (in CCO): 533 nm | emission maximum (in CN(C)C=O): 523 nm | emission maximum (in CO): 535 nm | emission maximum (in Cc1ccccc1): 468 nm | emission maximum (in ClC(Cl)Cl): 507 nm | emission maximum (in c1ccccc1): 470 nm

Compound: C(#Cc1ccc(-n2c3ccccc3c3ccccc32)cc1)c1ccccc1
emission maximum (in CC#N): 443 nm | emission maximum (in CO): 401 nm | emission maximum (in Cc1ccccc1): 364 nm | emission maximum (in ClC(Cl)Cl): 379 nm | emission maximum (in ClCCl): 390 nm

emission maximum (in ClCCl): 662 nm
Compound: CCCCCCOc1cc(/C=C/c2cc(OCCCCCC)c(/C=C/c3cc(OCCCCCC)c(C=C4C(=O)c5ccccc5C4=O)cc3OCCCCCC)cc2OCCCCCC)c(OCCCCCC)cc1C=C1C(=O)c2ccccc2C1=O

Compound: Cc1cccc2[n+]1[B-](F)(F)n1c(c3cccc4cccc1c43)=N2
emission maximum (in C1CCOC1): 496 nm | emission maximum (in CC#N): 495 nm | emission maximum (in CCCCCC): 494 nm | emission maximum (in Cc1ccccc1): 498 nm | emission maximum (in ClCCl): 521 nm

emission maximum (in CCO): 428 nm | emission maximum (in ClCCl): 405 nm | emission maximum (in O): 566 nm
Compound: Oc1ccc(-c2cccs2)cc1-c1nc2ccccc2s1

emission maximum (in ClC(Cl)Cl): 450 nm
Compound: Cc1ccc(C2=Cc3c4ccccc4c4ccccc4[n+]3[B-](F)(F)O2)cc1

emission maximum (in C1CCCCC1): 468 nm | emission maximum (in CC#N): 524 nm
Compound: CN(C)c1ccc(/C=C/c2nc3c(ccc4ccccc43)s2)cc1

emission maximum (in CC#N): 648 nm | emission maximum (in CCCCCC): 655 nm | emission maximum (in CCOC(C)=O): 654 nm | emission maximum (in CO): 646 nm | emission maximum (in ClCCl): 656 nm
Compound: N#CSC1=CC2=C(c3c(Cl)cccc3Cl)c3cc(SC#N)c(NCc4ccccc4)n3[B-](F)(F)[N+]2=C1NCc1ccccc1

emission maximum (in C1CCCCC1): 383 nm
Compound: C1=Cc2ccc3ccccc3c2NB1c1ccccc1

emission maximum (in CS(C)=O): 439 nm
Compound: CCOC(=O)C1=C(N)n2c(=O)c3ccccc3c(=O)n2C1c1cccs1 (stereo not given)

Compound: Cc1ccc(C2=C3C=CC(c4ccccc4)=[N+]3[B-](F)(F)n3c(Cl)ccc32)cc1
emission maximum (in C1CCCCC1): 553 nm | emission maximum (in C1CCOC1): 555 nm | emission maximum (in C1COCCO1): 554 nm | emission maximum (in CCOC(C)=O): 551 nm | emission maximum (in CO): 549 nm | emission maximum (in Cc1ccccc1): 558 nm | emission maximum (in ClC(Cl)Cl): 555 nm

Compound: c1ccc(-c2nc(-c3ccccc3)nc(-c3cc(-n4c5ccccc5c5ccccc54)c(-n4c5ccccc5c5ncccc54)c(-n4c5ccccc5c5ccccc54)c3)n2)cc1
emission maximum (in C1CCOC1): 481.97 nm | emission maximum (in CC#N): 535.03 nm | emission maximum (in CCCCCC): 422.11 nm | emission maximum (in Cc1ccccc1): 447.02 nm | emission maximum (in ClCCl): 507.14 nm

emission maximum (in ClCCl): 391 nm
Compound: Cc1cc2c3ccccc3n(C)c2c2c1c1ccccc1n2C

emission maximum (in ClCCl): 437 nm
Compound: C(S/C=C/c1ccc(-c2ccc(/C=C/SC=C3CCCCCCC3)cc2)cc1)=C1CCCCCCC1

emission maximum (in CCO): 488 nm
Compound: CN1c2cc3nc4cc(F)c(F)cc4nc3cc2N(C)C1(C)C

emission maximum (in C1CCOC1): 480 nm | emission maximum (in C1COCCO1): 480 nm | emission maximum (in CC#N): 488 nm | emission maximum (in CCCCCCC): 455 nm | emission maximum (in CCO): 490 nm | emission maximum (in O): 495 nm | emission maximum (in OCC(O)CO): 492 nm | emission maximum (in OCCO): 495 nm
Compound: CCOC(=O)C1CC(c2c(C#N)c(C)nn2-c2ccccc2)=CN1c1ccc(Br)cc1 (stereo not given)

Compound: CCCCCCc1ccc(/C=C/c2ccc(CCCCCC)s2)s1
emission maximum (in Cc1ccccc1): 416 nm

Compound: Cc1ccc2c(c1)c1cc(C)ccc1n2-c1c(C#N)c(-n2c3ccc(C)cc3c3cc(C)ccc32)c(-n2c3ccc(C)cc3c3cc(C)ccc32)c(C#N)c1-n1c2ccc(C)cc2c2cc(C)ccc21
emission maximum (in Cc1ccccc1): 561 nm

emission maximum (in ClC(Cl)Cl): 488 nm
Compound: CN(C)c1ccc(-c2ccc(-c3ncc4ccccn34)cc2)cc1

Compound: Cc1cc(C)cc(C)c1
emission maximum (in C1CCCCC1): 294.72 nm

emission maximum (in ClCCl): 405 nm
Compound: COc1cc2c(cc1OC)C1=C[C@H](c3ccc(C)cc3)C3(C(C#N)=C(C#N)N1CC2)c1cc(Br)ccc1-c1ccc(Br)cc13

Compound: CC(C)[Si](C#Cc1c2ccc(C(C)(C)C)cc2c(C#C[Si](C(C)C)(C(C)C)C(C)C)c2ccc(C(C)(C)C)cc12)(C(C)C)C(C)C
emission maximum (in Cc1ccccc1): 461 nm

emission maximum (in C1CCOC1): 585 nm | emission maximum (in CC#N): 656 nm | emission maximum (in CCCCCC): 506 nm
Compound: CC1=N/C(=C\c2cccc(N(C)C)c2)C(=O)N1CCO

emission maximum (in C1COCCO1): 352 nm
Compound: COc1ccc(-c2ccc(-c3ccc(F)cc3)cc2)cc1

emission maximum (in ClCCl): 555 nm
Compound: Brc1ccc(N(c2ccc(/C=C/c3ccncn3)cc2)c2ccc(/C=C/c3ccncn3)cc2)cc1

Compound: CCOC(=O)CN1C(=O)C2=C(c3ccc(N4CCCCC4)cc3)N(CC(=O)OCC)C(=O)C2=C1c1ccccc1
emission maximum (in CC#N): 587 nm | emission maximum (in CS(C)=O): 601 nm | emission maximum (in Cc1ccccc1): 563 nm

emission maximum (in ClCCl): 401 nm
Compound: COC(=O)c1c(-c2cc3ccccc3oc2=O)nn(-c2ccc(Br)cc2)c1C(=O)OC

emission maximum (in C1COCCO1): 428 nm | emission maximum (in CC#N): 458 nm | emission maximum (in CC(C)O): 480 nm | emission maximum (in CCO): 489 nm | emission maximum (in CCOC(C)=O): 433 nm | emission maximum (in CN(C)C=O): 452 nm | emission maximum (in CO): 498 nm | emission maximum (in CS(C)=O): 450 nm | emission maximum (in OCC(O)CO): 404 nm | emission maximum (in OCCO): 493 nm
Compound: Nc1c(-c2nn([C@H]3C[C@H](O)[C@@H](CO)O3)c3ncnc(N)c23)ccc2ccccc12

Compound: CC(=O)O[B-]1(OC(C)=O)OC(/C=C/c2cccc3ccccc23)=CC(/C=C/c2cccc3ccccc23)=[O+]1
emission maximum (in C1CCOC1): 539 nm | emission maximum (in CC#N): 569 nm | emission maximum (in CC(C)=O): 553 nm | emission maximum (in CS(C)=O): 574 nm | emission maximum (in Cc1ccccc1): 529 nm | emission maximum (in ClC(Cl)Cl): 551 nm | emission maximum (in ClCCl): 554 nm

Compound: COc1cc(C2=c3c(c4ccc(C(C)(C)C)cc4c4cc(C(C)(C)C)ccc34)=[N+]3C2=Nc2c(-c4cc(OC)c(OC)c(OC)c4)c4c5ccc(C(C)(C)C)cc5c5cc(C(C)(C)C)ccc5c4n2[B-]3(F)F)cc(OC)c1OC
emission maximum (in Cc1ccccc1): 816 nm

emission maximum (in C1CCOC1): 574 nm
Compound: FC(F)(F)C(F)(F)C(F)(F)c1nc2c(-c3ccsc3)cc3c4cc(-c5ccsc5)c5nc(C(F)(F)C(F)(F)C(F)(F)F)nc6c(-c7ccsc7)cc(c7cc(-c8ccsc8)c(n1)c2c37)c4c56

emission maximum (in C1CCOC1): 409 nm
Compound: N#Cc1ccc(N)c(/C=C/C(F)(F)F)c1

emission maximum (in ClC(Cl)Cl): 434 nm
Compound: Cc1ccccc1C1CC(=O)Oc2c1c1nc3ccccc3nc1c1ccccc21 (stereo not given)

Compound: CCCC1=Cc2nc1ccc1[nH]c(cc1CCC)c1nc(c(NC(=O)CCCC(=O)OC)cc3[nH]c2cc3CCC)C(CCC)=C1
emission maximum (in Cc1ccccc1): 680 nm

Compound: CCCCCCCCCCCCCCCCN(CCCCCCCCCCCCCCCC)c1ccc(/C=C/c2cc[n+](Cc3cc(C[n+]4ccc(/C=C/c5ccc(N(CCCCCCCCCCCCCCCC)CCCCCCCCCCCCCCCC)cc5)cc4)cc(C[n+]4ccc(/C=C/c5ccc(N(CCCCCCCCCCCCCCCC)CCCCCCCCCCCCCCCC)cc5)cc4)c3)cc2)cc1
emission maximum (in C1COCCO1): 578 nm | emission maximum (in CC(C)O): 613 nm | emission maximum (in CCCCCC): 630 nm | emission maximum (in CCCCCCCCO): 589 nm | emission maximum (in CCCCO): 612 nm | emission maximum (in CCCO): 617 nm | emission maximum (in CCO): 621 nm | emission maximum (in CO): 624 nm | emission maximum (in CS(C)=O): 615 nm | emission maximum (in Cc1ccc(C)cc1): 556 nm | emission maximum (in Cc1ccccc1): 559 nm | emission maximum (in ClC(Cl)Cl): 587 nm | emission maximum (in ClCCl): 606 nm | emission maximum (in c1ccccc1): 562 nm

Compound: N#Cc1nc2c3ccc(-n4c5ccccc5c5ccccc54)cc3c3cc(-n4c5ccccc5c5ccccc54)ccc3c2nc1C#N
emission maximum (in C1COCCO1): 568.06 nm | emission maximum (in CCCCCC): 469.61 nm | emission maximum (in Cc1ccccc1): 531 nm | emission maximum (in ClC(Cl)Cl): 612.69 nm | emission maximum (in O=P(c1ccccc1)(c1ccccc1)c1cccc(-c2cc(-n3c4ccccc4c4ccccc43)cc(-n3c4ccccc4c4ccccc43)c2)n1): 560 nm

Compound: CC(C)(C)c1ccc(-c2sc3c(-c4ccc(C(C)(C)C)cc4)c4n(c3c2-c2ccc(C(C)(C)C)cc2)[B-](F)(F)[N+]2=Cc3c(-c5ccc(C(C)(C)C)cc5)c5sc(-c6ccc(C(C)(C)C)cc6)c(-c6ccc(C(C)(C)C)cc6)c5n3[B-](F)(F)[N+]2=C4)cc1
emission maximum (in CC#N): 627 nm | emission maximum (in CCCCCC): 626 nm | emission maximum (in CN(C)C=O): 636 nm | emission maximum (in Cc1ccccc1): 632 nm | emission maximum (in ClCCl): 631 nm

emission maximum (in CCO): 647 nm | emission maximum (in ClC(Cl)Cl): 642 nm | emission maximum (in ClCCl): 647 nm
Compound: CCN(CC)c1ccc2cc3c([o+]c2c1)/C(=C/Nc1ccccc1)CCC3

emission maximum (in ClC(Cl)Cl): 556 nm
Compound: CC1=[N+]2C(=C(c3c4ccccc4cc4ccccc34)c3ccc(/C=C/C(C)(C)C)n3[B-]2(F)F)C=C1

emission maximum (in CCOC(C)=O): 398 nm
Compound: c1cc2ccc3cc4[nH]ccc4c4ccc(c1)c2c34

Compound: c1ccc2c(c1)c1ccccc1n2-c1ccc2cc(-c3ccc(-c4ccc(-c5cc6ccc(-n7c8ccccc8c8ccccc87)cc6o5)cc4)cc3)oc2c1
emission maximum (in Cc1ccccc1): 419 nm | emission maximum (in c1ccc2c(c1)c1ccccc1n2-c1ccc(-c2ccc(-n3c4ccccc4c4ccccc43)cc2)cc1): 441 nm

Compound: C(=C\c1ccccn1)/c1ccc(N(c2ccc(/C=C/c3ccccn3)cc2)c2ccc(-c3nc4ccccc4nc3-c3ccc(N(c4ccc(/C=C/c5ccccn5)cc4)c4ccc(/C=C/c5ccccn5)cc4)cc3)cc2)cc1
emission maximum (in C1CCOC1): 548 nm | emission maximum (in Cc1ccccc1): 533 nm

Compound: COC(=O)/C(C#N)=c1\s/c(=c2/s/c(=C(/C#N)C(=O)OC)c3cc(-c4ccc(C(F)(F)F)cc4)sc23)c2sc(-c3ccc(C(F)(F)F)cc3)cc12
emission maximum (in Cc1ccccc1): 625 nm

emission maximum (in CC1CCCCC1): 357 nm | emission maximum (in CC#N): 383 nm | emission maximum (in CO): 389 nm
Compound: COC(=O)C(NC(=O)OC(C)(C)C)c1ccc2oc(-c3cc(OC)c(OC)cc3OC)nc2c1 (stereo not given)

emission maximum (in ClC(Cl)Cl): 433 nm
Compound: O=C1CC(c2ccc(C(F)(F)F)cc2)c2c(c3ccccc3c3nc4ccccc4nc23)O1 (stereo not given)

Compound: c1ccc2c(c1)c1ccccc1n2-c1cc(-c2nc3ccccn3n2)cc(-n2c3ccccc3c3ccccc32)c1
emission maximum (in Cc1ccccc1): 373 nm

emission maximum (in ClCCl): 702 nm
Compound: CC(C)c1cccc(C(C)C)c1N1C(=O)c2ccc3c(-c4ccccc4)c4c5ccc6c7c(ccc(c(-c8ccccc8)c4c4ccc(c2c34)C1=O)c75)C(=O)N(c1c(C(C)C)cccc1C(C)C)C6=O

emission maximum (in CC#N): 422 nm
Compound: Cc1ccc(-c2ccc(/C=C/c3cccs3)cn2)nc1
